In series [1] the test system is Drosophila stem cell tumors. Nature of the series: Drosophila screen (stem cell / intestinal tumors). Format: in vivo.
Text: (§2) We tested 10 reported Arf1 inhibitors (Bill et al., 2011; Boal et al., 2010; Feng et al., 2004; Newton et al., 2006; Ohashi et al., 2012; Sáenz et al., 2009; Sorieul et al., 2011; Viaud et al., 2007), including brefeldin A (BFA), Golgicide A (GCA), LM11, Secin16, Secin H3, Secin B7, Exo1, Exo2, LG8, and LG18, on Drosophila stem cell tumors and normal human bone marrow hematopoietic stem cells (HSCs).
Series [2] deals with tumor cells. Nature of the series: Tumor cytotoxicity experiments in vitro (all lines, general statements). Format: cell-based. To be noted: HT29, LoVo, Huh7, H460, A549; FIG. 2-7. An excerpt: (§1) In different tumor cytotoxicity experiments in vitro (FIG. 2-FIG. 7), including colorectal cancer cell lines HT29 and LoVo cells, liver cancer cell Huh7, lung cancer cells H460 and A549, the arf1 inhibitor could all inhibit tumor cell growth (FIG. 2-FIG. 6), and there was a dose-dependent manner (FIG. 7).

In series [3] the target is T1, Arf1 (Homo sapiens, UniProt P84077).
T1 construct: Active Arf1 was detected by using The Thermo Scientific Pierce Active Arf1 Pull-Down and Detection Kit (Cat #16121) with liver cancer Huh-7 cell lysate; endogenous in cells; host or cells: Huh-7 liver cancer cells (lysate)
T1 sequence (P84077 whole entry): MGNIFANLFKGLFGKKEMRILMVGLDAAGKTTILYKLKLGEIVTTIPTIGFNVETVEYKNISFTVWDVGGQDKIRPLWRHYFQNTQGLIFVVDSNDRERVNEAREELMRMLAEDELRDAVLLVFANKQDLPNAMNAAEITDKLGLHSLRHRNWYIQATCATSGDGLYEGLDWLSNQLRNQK
Put plainly: Active Arf1 Pull-Down and Detection Kit (GTP-bound Arf1). Format: biochemical. Conditions: liver cancer Huh-7 cell lysate; FIG. 1. An excerpt: Active Arf1 was detected by using The Thermo Scientific Pierce Active Arf1 Pull-Down and Detection Kit (Cat #16121) with liver cancer Huh-7 cell lysate. It is a complete kit for selective enrichment and detection of GTP-bound Arf1 GTPase through specific protein interaction with the GGA3 protein-binding domain (FIG. 1).

Series [4] has as its system mice. Put plainly: Toxicity in mice, oral gavage. Format: in vivo.
The test system of series [5] is liver tumors in MYC-ON mice. Put plainly: MYC-ON liver tumor model. Format: in vivo. To be noted: gavage, 5 per week for 4 weeks, analyzed 10 weeks later. An excerpt:
We used the Tet system to generate transgenic mice conditionally expressing the myc pro-oncogene in hepatocytes, […] myc/lap TTA (lt2-myc) (shachaf et al., 2004). We crossed tre-myc mice with a transgenic line, lap TTA. in which the liver activator protein (LAP) promoter drives the expression of tetracycline trans-activator protein (TTA) in hepatocytes. We confirmed this by discontinuing the feeding of doxycycline (myc-ON) activated myc transgene expression in 3-week-old mice. Subsequently. all transgenic mice overexpressing myc succumbed to liver tumors with a mean latency to tumor onset of 12 weeks, as previously reported (shachaf et al., 2004). In this lap TTA/tet-off myc conditional transgenic mouse model, myc overexpression in adult mice reproducibly induces liver cancer, similar to hepatocellular carcinoma and/or hepatoblastoma. The transgenic tumor invades the entire liver locally and is frequently associated with malignant peritoneal effusions that spread to the thoracic cavity by metastasis and invade the lung parenchyma.
For the mouse liver tumor model, mating cages and weaning cages were administrated by a grain based rodent diet (Bio-Serv. Cat #14-727-450) containing 200 mg/kg doxycycline, and the mice were induced tumors at 6 weeks of age, by changing to a normal diet. Mice were divided into three groups, control, Du 101 treated and du102 treated. The control group was given 100 by gavage using a feeding tube 100 μl/10 g body weight (BW) 20% DMSO+80% corn oil. Du 101 treated groups were treated with 25 mg/ml Du 101. The stock solution was diluted 1:4 with corn oil to make the working solution. Dul02 treatment groups were treated with 25 mg/ml du102 stock solution diluted 1:4 with corn oil to make working solutions. The mixed working solution was administered to mice by gavage using a feeding tube. Starting from the second week of myc-0n, 5 injections per week ([…]) were given for 4 weeks, mice were monitored every 2 days, and 10 weeks later mice were euthanized and analyzed for tumor growth.
For the myc-on liver tumor model, antibodies were i.p. Mg/kg) was injected once a week for 5 consecutive weeks, the first Doxycycline was discontinued weekly after injection. Antibodies used to treat mice were as follows: anti-CD4 (clone GK1.5, BioXcell, Cat #BE0003-1), anti-CD8 a (clone 2.43, BioXcell, Cat #BE0061) Or […] rat IgG (bioxcell, cat #be0094) isotype control antibody. From the second week of myc-on initiation lasted for 4 weeks, Du 102 and DMSO were administered by gavage needle as described above, mice were monitored every 2 days, and 10 weeks later mice were euthanized and analyzed for tumor growth.
For the myc-on liver tumor model, antibodies were i.p. Injection once a week for 5 weeks, and doxycycline was discontinued weekly after the first injection. Antibodies used to treat mice were as follows: 100 ug/mouse Armenian hamster anti mouse PD1 (J43, bioxcell, cat #be0033-2) and 100 ug/mouse Armenian hamster isotype IgG (bioxcell. cat #bp0091) was used as controls. For 4 weeks from the second week of myc-on, Du 102 and DMSO were administered by gavage needle as described above, mice were monitored every 2 days. and 10 weeks later mice were euthanized and analyzed for tumor growth. Coadministration of anti-PD-1 antibodies may allow the use of lower, less toxic doses of du102, thus avoiding known side effects.

The test system of series [6] is normal human bone marrow hematopoietic stem cells (HSCs). Nature of the series: Toxicity on normal hematopoietic stem cells.
Text: as §2
For series [7], the system named is lung cancer cells H460. Nature of the series: In vitro cell line screening, H460. Format: cell-based.
Text: as §1

Series [8] relates to lung cancer cells A549. Nature of the series: In vitro cell line screening, A549. Format: cell-based.
Text: as §1

The subject of series [9] is colorectal cancer cell line HT29. Put plainly: In vitro cell line screening, HT29. Format: cell-based.
Text: as §1

The subject of series [10] is colorectal cancer cell line LoVo. Put plainly: In vitro cell line screening, LoVo. It is filed as cell-based.
Text: as §1

The subject of series [11] is liver cancer cell Huh7. Nature of the series: In vitro cell line screening, Huh7. It is filed as cell-based.
Text: as §1

Take `C(=N\Nc1ncnc2sc3c(c12)CCCC3)/c1ccc2[nH]ccc2c1` [Du 101]: in series [1] (Drosophila screen, FIG. 8), the “in vivo tumor suppressive effects” value was “good in vivo tumor suppressive effects”. Besides, the “killing Drosophila stem cell tumors” value in series [1] (in vivo) is on record as “effective”. Besides, the “tumor suppressive / inhibitory effect on tumor cells” value in series [2] was “Some Tumor Suppressive Effect”. In [3], the “inhibition of arf1 activation” value is “potent inhibitors”. The toxic effects entry is listed as “induced toxic effects” in series [4] (oral gavage for 60 consecutive days, FIG. 10) and “no toxic effects were observed” in [4] (up to 50 mg/kg by oral gavage for 21 consecutive days, FIG. 9). Besides, in series [5], the liver tumor numbers is given as 44.7. For the same compound, the “toxicity (killing normal HSCs)” value in series [6] was “relatively low toxicity”.

In the case of `Cc1ccc(/C=C/Cc2cccc3c2C2=C(CCCC2)C3)cc1C` [compound 104], the tumor suppressive effect entry in series [7], in series [8], in series [9], in series [10] and in series [11] was “effective tumor suppressive effects” throughout.

For `C1=Cc2cc(/C=C/Cc3cccc4c3C3=C(CCCC3)C4)ccc2C1` [compound 107], the tumor suppressive effect result in series [7], in series [8], in [9], in series [10] and in series [11] was “effective tumor suppressive effects” throughout.

On to `C(=C\c1ccccc1)/Cc1cccc2c1C1=C(CCCCCC1)C2` [compound 109], for which the tumor suppressive effect result in series [7], in series [8], in series [9], in series [10] and in series [11] was “effective tumor suppressive effects” throughout.
